# In US7923228B2, “Methods and compositions for growth of hydrocarbons in Botryococcus sp” (priority 2005, dated 2011):
# Test system: Botryococcus sp. colonies
# Experiment: Flotation (buoyancy) of sunken colonies as visual readout of hydrocarbon content
# Format: cell-based
# Text: Previous investigations (Ohmori, et al. 1984; and Wolf, et al, 1985) verified that colonies containing greater than 20% of dry weight as botryococcenoid hydrocarbons were buoyant and that colonies containing less than 5% hydrocarbons remained sunken at the bottom of the culture vessel, providing a visual method for selecting cells with commercial-grade hydrocarbons. […] Colonies in hydrocarbon-enhancement were placed in the dark without supplemental carbon dioxide gas to eliminate artifacts of flotation from bubbles. Environmental conditions were 150 μE/m^2/sec PAR to 1700 μE/m^2/sec PAR at 25-37° Centigrade. Nutrient chemicals were reagent grade in all laboratory-scale experiments. In field-scale tests, fertilizer grade chemical nutrients were provided. In order to minimize or eliminate ammonia, nitrates were optionally kiln dried prior to admixture. Supplementation with 0.1% to 100% carbon dioxide gas or carbonate (e.g., 10 mg/ml sodium bicarbonate or potassium bicarbonate) increased hydrocarbon synthesis substantially, especially, when under the highest light intensities with soluble elements of the present invention. […]
substance,measurement,setting,value
phosphates,total phosphate concentration that stimulated the rise of colonies to the surface,"subtractive matrix analysis, most rapid in presence of soluble Mg, Mn, Fe, Zn+2",greater than 80 mM
same,state of colonies after long exposure,two weeks or more in 300 mM phosphate,"remained floating, but cleared to amber"
